Details: Liquid; for speed of sound: non intrusive technique with two piezoelectric transducers based on the time of flight

[2H]C([2H])([2H])C(=O)C([2H])([2H])[2H] [(D6)-2-propanone]
Details | mass density [kg/m3] | speed of sound [m/s]
288.2 K, 100 kPa | – | 1110.6
288.2 K, 5020 kPa | – | 1140.7
288.2 K, 10060 kPa | – | 1168.2
288.2 K, 20010 kPa | – | 1218.6
288.2 K, 30090 kPa | – | 1264.4
288.2 K, 40050 kPa | – | 1302.9
288.2 K, 49940 kPa | – | 1345.4
288.2 K, 60000 kPa | – | 1382.2
288.2 K, 70020 kPa | – | 1417.2
288.2 K, 80060 kPa | – | 1450.1
288.2 K, 90030 kPa | – | 1481.9
288.2 K, 100110 kPa | – | 1512.5
288.2 K, 110100 kPa | – | 1540.4
288.2 K, 120100 kPa | – | 1568.3
288.2 K, 130120 kPa | – | 1595.5
288.2 K, 140000 kPa | – | 1620.6
288.2 K, 150150 kPa | – | 1640.3
288.2 K, 160030 kPa | – | 1664
298.15 K, 100 kPa | 868 | –
298.15 K, 5000 kPa | 873.51 | –
298.15 K, 9920 kPa | 878.81 | –
298.15 K, 14840 kPa | 883.83 | –
298.15 K, 19760 kPa | 888.58 | –
298.15 K, 24670 kPa | 893.11 | –
298.15 K, 29590 kPa | 897.46 | –
298.15 K, 34510 kPa | 901.62 | –
298.15 K, 39430 kPa | 905.63 | –
298.15 K, 44340 kPa | 909.51 | –
298.15 K, 49260 kPa | 913.26 | –
298.15 K, 54180 kPa | 916.86 | –
298.15 K, 59100 kPa | 920.33 | –
298.25 K, 100 kPa | – | 1071.6
298.25 K, 5080 kPa | – | 1103.4
298.25 K, 10170 kPa | – | 1131.8
298.25 K, 20270 kPa | – | 1183.7
298.25 K, 30000 kPa | – | 1229.6
298.25 K, 40010 kPa | – | 1272.1
298.25 K, 50020 kPa | – | 1312
298.25 K, 60450 kPa | – | 1350.7
298.25 K, 70020 kPa | – | 1383.8
298.25 K, 80010 kPa | – | 1416.9
298.25 K, 90200 kPa | – | 1443.5
298.25 K, 100040 kPa | – | 1478.7
298.25 K, 110070 kPa | – | 1507.6
298.25 K, 120040 kPa | – | 1535.4
298.25 K, 130020 kPa | – | 1561.1
298.25 K, 140020 kPa | – | 1586.5
298.25 K, 150120 kPa | – | 1611.2
298.25 K, 159970 kPa | – | 1634.8
303.16 K, 100 kPa | 861.61 | –
303.16 K, 5000 kPa | 867.3 | –
303.16 K, 9920 kPa | 872.78 | –
303.16 K, 14840 kPa | 877.94 | –
303.16 K, 19760 kPa | 882.84 | –
303.16 K, 24670 kPa | 887.5 | –
303.16 K, 29590 kPa | 891.96 | –
303.16 K, 34510 kPa | 896.23 | –
303.16 K, 39430 kPa | 900.35 | –
303.16 K, 44340 kPa | 904.3 | –
303.16 K, 49260 kPa | 908.1 | –
303.16 K, 54180 kPa | 911.79 | –
303.16 K, 59100 kPa | 915.34 | –
308.2 K, 100 kPa | 855.39 | –
308.2 K, 5000 kPa | 861.42 | –
308.2 K, 9920 kPa | 867.11 | –
308.2 K, 14840 kPa | 872.49 | –
308.2 K, 19760 kPa | 877.58 | –
308.2 K, 24670 kPa | 882.42 | –
308.2 K, 29590 kPa | 887.02 | –
308.2 K, 34510 kPa | 891.38 | –
308.2 K, 39430 kPa | 895.65 | –
308.2 K, 44340 kPa | 899.72 | –
308.2 K, 49260 kPa | 903.62 | –
308.2 K, 54180 kPa | 907.33 | –
308.2 K, 59100 kPa | 910.94 | –
308.22 K, 100 kPa | – | 1033.3
308.22 K, 5040 kPa | – | 1063.2
308.22 K, 10000 kPa | – | 1093.5
308.22 K, 20090 kPa | – | 1147.9
308.22 K, 29990 kPa | – | 1196.3
308.22 K, 40040 kPa | – | 1240.8
308.22 K, 50090 kPa | – | 1281.7
308.22 K, 60060 kPa | – | 1319.5
308.22 K, 70070 kPa | – | 1355
308.22 K, 80090 kPa | – | 1388.6
308.22 K, 89970 kPa | – | 1420.3
308.22 K, 100070 kPa | – | 1450.8
308.22 K, 110070 kPa | – | 1479.7
308.22 K, 120060 kPa | – | 1507.5
308.22 K, 130120 kPa | – | 1534.3
308.22 K, 140080 kPa | – | 1559.4
308.22 K, 150120 kPa | – | 1584
308.22 K, 160000 kPa | – | 1607.2
313.21 K, 100 kPa | 848.68 | –
313.21 K, 5000 kPa | 855 | –
313.21 K, 9920 kPa | 860.92 | –
313.21 K, 14840 kPa | 866.48 | –
313.21 K, 19760 kPa | 871.75 | –
313.21 K, 24670 kPa | 876.72 | –
313.21 K, 29590 kPa | 881.49 | –
313.21 K, 34510 kPa | 886.02 | –
313.21 K, 39430 kPa | 890.35 | –
313.21 K, 44340 kPa | 894.51 | –
313.21 K, 49260 kPa | 898.52 | –
313.21 K, 54180 kPa | 902.37 | –
313.21 K, 59100 kPa | 906.07 | –
318.11 K, 100 kPa | 842.15 | –
318.11 K, 5000 kPa | 848.68 | –
318.11 K, 9920 kPa | 854.81 | –
318.11 K, 14840 kPa | 860.56 | –
318.11 K, 19760 kPa | 865.99 | –
318.11 K, 24670 kPa | 871.14 | –
318.11 K, 29590 kPa | 876.06 | –
318.11 K, 34510 kPa | 880.71 | –
318.11 K, 39430 kPa | 885.18 | –
318.11 K, 44340 kPa | 889.44 | –
318.11 K, 49260 kPa | 893.55 | –
318.11 K, 54180 kPa | 897.49 | –
318.11 K, 59100 kPa | 901.28 | –
318.22 K, 100 kPa | – | 991.2
318.22 K, 4980 kPa | – | 1022.9
318.22 K, 10070 kPa | – | 1053.8
318.22 K, 19990 kPa | – | 1109.8
318.22 K, 30040 kPa | – | 1161.1
318.22 K, 40070 kPa | – | 1207.9
318.22 K, 50060 kPa | – | 1250.3
318.22 K, 60010 kPa | – | 1289.3
318.22 K, 70120 kPa | – | 1326.3
318.22 K, 80030 kPa | – | 1360.3
318.22 K, 90090 kPa | – | 1393
318.22 K, 100300 kPa | – | 1424.8
318.22 K, 110120 kPa | – | 1453.2
318.22 K, 120030 kPa | – | 1481
318.22 K, 129970 kPa | – | 1507.9
318.22 K, 140110 kPa | – | 1534.2
318.22 K, 150060 kPa | – | 1558.7
318.22 K, 160060 kPa | – | 1582.6
323.12 K, 100 kPa | 835.37 | –
323.12 K, 5000 kPa | 842.13 | –
323.12 K, 9920 kPa | 848.49 | –
323.12 K, 14840 kPa | 854.44 | –
323.12 K, 19760 kPa | 860.07 | –
323.12 K, 24670 kPa | 865.35 | –
323.12 K, 29590 kPa | 870.38 | –
323.12 K, 34510 kPa | 875.18 | –
323.12 K, 39430 kPa | 879.78 | –
323.12 K, 44340 kPa | 884.16 | –
323.12 K, 49260 kPa | 888.38 | –
323.12 K, 54180 kPa | 892.45 | –
323.12 K, 59100 kPa | 896.36 | –
328 K, 100 kPa | 828.68 | –
328 K, 5000 kPa | 835.72 | –
328 K, 9920 kPa | 842.33 | –
328 K, 14840 kPa | 848.48 | –
328 K, 19760 kPa | 854.24 | –
328 K, 24670 kPa | 859.71 | –
328 K, 29590 kPa | 864.88 | –
328 K, 34510 kPa | 869.82 | –
328 K, 39430 kPa | 874.55 | –
328 K, 44340 kPa | 879.05 | –
328 K, 49260 kPa | 883.39 | –
328 K, 54180 kPa | 887.57 | –
328 K, 59100 kPa | 891.6 | –
328.68 K, 100 kPa | – | 941.9
328.68 K, 5090 kPa | – | 977.6
328.68 K, 10030 kPa | – | 1009.5
328.68 K, 20070 kPa | – | 1068.8
328.68 K, 30010 kPa | – | 1121.9
328.68 K, 40010 kPa | – | 1171.1
328.68 K, 50070 kPa | – | 1215.9
328.68 K, 60000 kPa | – | 1256.7
328.68 K, 70030 kPa | – | 1294.8
328.68 K, 80090 kPa | – | 1330.4
328.68 K, 90100 kPa | – | 1364
328.68 K, 100060 kPa | – | 1396.1
328.68 K, 110140 kPa | – | 1426.4
328.68 K, 120100 kPa | – | 1454.7
328.68 K, 130000 kPa | – | 1481.9
328.68 K, 140020 kPa | – | 1508.4
328.68 K, 150040 kPa | – | 1533.8
328.68 K, 160100 kPa | – | 1557.9
332.91 K, 5000 kPa | 829.26 | –
332.91 K, 9920 kPa | 836.08 | –
332.91 K, 14840 kPa | 842.42 | –
332.91 K, 19760 kPa | 848.36 | –
332.91 K, 24670 kPa | 853.96 | –
332.91 K, 29590 kPa | 859.28 | –
332.91 K, 34510 kPa | 864.37 | –
332.91 K, 39430 kPa | 869.21 | –
332.91 K, 44340 kPa | 873.86 | –
332.91 K, 49260 kPa | 878.33 | –
332.91 K, 54180 kPa | 882.64 | –
332.91 K, 59100 kPa | 886.8 | –
338.72 K, 100 kPa | – | 888.6
338.72 K, 5050 kPa | – | 927.2
338.72 K, 10020 kPa | – | 962.5
338.72 K, 20030 kPa | – | 1025.1
338.72 K, 30050 kPa | – | 1081.4
338.72 K, 40010 kPa | – | 1132.6
338.72 K, 49990 kPa | – | 1179.8
338.72 K, 60050 kPa | – | 1223.2
338.72 K, 70040 kPa | – | 1262.8
338.72 K, 79970 kPa | – | 1299.3
338.72 K, 90070 kPa | – | 1334.7
338.72 K, 100040 kPa | – | 1367.5
338.72 K, 110020 kPa | – | 1398.5
338.72 K, 119960 kPa | – | 1428.5
338.72 K, 130000 kPa | – | 1456.6
338.72 K, 140080 kPa | – | 1484.3
338.72 K, 150050 kPa | – | 1510.5
338.72 K, 159910 kPa | – | 1535.5

Source: the NIST ThermoML archive (doi:10.1016/j.jct.2004.11.001)
